Substitutions are numbered along the chain they refer to. In names and notes the source's numbering stands. Blank lines part the entries; values can stand above or below the molecule they belong to.
Tests used:
[1] = target: T1, MtCorBΔC (Methanoculleus thermophilus, UniProt A0A1G8XA46); test: isothermal titration calorimetry; assay type: binding
T1 construct: gene corB; residues 1-322 (TMD, AHB, CBS-pair; CorC domain deleted), C-terminal His6-tag, E. coli C41(DE3), detergent-solubilized
Source text: isothermal titration calorimetry on MtCorBΔC | MtCorBΔC has the highest affinity for ATP, followed by ADP and AMP

[2] = target: T2, MtCorBCBS (Methanoculleus thermophilus, UniProt A0A1G8XA46); test: isothermal titration calorimetry; also crystal structure […] Å; assay type: binding
T2 construct: gene corB; CBS-pair domain, residues 199-322, GST-tag cut leaving N-terminal GPLGS, E. coli BL21(DE3); crystal 7MSU came from in situ cleavage of MtCorBΔC

[3] = target: the molecule itself; test: HDX-MS; MtCorB or MtCorBΔC in MSP1D1 nanodiscs, with and without Mg2+-ATP; exchange for 3, 30, 300 or 3000 s at 20 °C, 100 mM NaCl, 20 mM HEPES pH 7.5
[4] = target: the molecule itself; test: crystal structure; MtCorBΔC_(Δloop) in 0.05% UDM with 5 mM ATP and 20 mM MgCl2; hanging drop, 0.1 M sodium citrate pH 5.5, 0.1 M Li2SO4, 0.1 M NaCl, 34% PEG400, 22 °C; 3.25 Å
[5] = target: the molecule itself; test: crystal structure; MtCorBΔC R235L in 0.05% UDM, no ATP; hanging drop, 0.1 M sodium citrate pH 5.5, 50 mM Li2SO4, 11% PEG4000, 10 mM MgSO4, 22 °C; 3.8 Å

- Kd [1]: 0.59 ± 0.06 µM
- Kd [2]: 0.53 ± 0.05 µM
Molecule: Nc1ncnc2c1ncn2[C@@H]1O[C@H](COP(=O)(O)OP(=O)(O)OP(=O)(O)O)[C@@H](O)[C@H]1O [ATP]

- Kd [1]: 10.3 ± 1 µM
Molecule: Nc1ncnc2c1ncn2[C@@H]1O[C@H](COP(=O)(O)OP(=O)(O)O)[C@@H](O)[C@H]1O [ADP]

- Kd [1]: 83 ± 17 µM
Molecule: Nc1ncnc2c1ncn2[C@@H]1O[C@H](COP(=O)(O)O)[C@@H](O)[C@H]1O [AMP]

B1: MtCorB (residues 1–426), Methanoculleus thermophilus CorB (natural protein, UniProt A0A1G8XA46 1-426, looked up)
chain: MVVIDLLIVEVVLFIAALLFSGFFSSSEVALISITRAKVHALQSQGRKGAKALDTLKRSTDAIQITTLIGSTIANVAVASLATAIGITLYGNLGIAVGLVVAAVLVLVFGEIGPKMYASRYTEELALRVSRPILFFSKLLYPVLWVTDRIEQQFAFRPGVTEPVVTEEEIKEWIDVGEEEGTIEEEERDMLYSVLRFGDTTAREVMTPRVDVVMIEDTATLESALAIFNETGFSRIPVYHERIDNIVGLLNVKDVFSAVFRQQTSATIRDLMYEPYFIPESKKIDELLKELQVKKQHMAVVLDEYGSFAGIVTVEDMLEELVGEILDEFDEEEPEVQQLEEGIYLVDARTWVEHLNEDLDLNLPLMDTYESIGGLVIERLGHIPRRGEVVKIEESNVTLVVMQMRGRRIVKVKLIIGPPVPPTESR
notes: CorB, Methanoculleus thermophilus, UniProt A0A1G8XA46, residues 1-426; In nanodiscs of soybean polar extract and MSP1D1; filled nanodiscs were recovered on Ni-NTA; also called full-length MtCorB; source: E. coli C41 (DE3), purified (Ni-NTA, SEC), reconstituted into MSP1D1 nanodiscs; not shown: His6, C-terminal, kept
- binding result [3]: binds

B2: MtCorBΔC_(Δloop) (Methanoculleus thermophilus CorB residues 1–322 Δ259–262) (domain or fragment, UniProt A0A1G8XA46 1-322, looked up)
chain: MVVIDLLIVEVVLFIAALLFSGFFSSSEVALISITRAKVHALQSQGRKGAKALDTLKRSTDAIQITTLIGSTIANVAVASLATAIGITLYGNLGIAVGLVVAAVLVLVFGEIGPKMYASRYTEELALRVSRPILFFSKLLYPVLWVTDRIEQQFAFRPGVTEPVVTEEEIKEWIDVGEEEGTIEEEERDMLYSVLRFGDTTAREVMTPRVDVVMIEDTATLESALAIFNETGFSRIPVYHERIDNIVGLLNVKDVFSAQTSATIRDLMYEPYFIPESKKIDELLKELQVKKQHMAVVLDEYGSFAGIVTVEDMLEELV
notes: CorB, Methanoculleus thermophilus, UniProt A0A1G8XA46, residues 1-322 (TMD, AHB and CBS-pair domain; CorC domain deleted) with the internal loop 259-262 deleted; Modelled: chain A residues 5-322, chain B residues 4-154 and 160-322; also called MtCorBΔC with an internal loop deletion; source: E. coli C41 (DE3), purified (Ni-NTA, SEC) in UDM
- binding result [4]: binds

B3: MtCorBΔC R235L (domain or fragment, Methanoculleus thermophilus, UniProt A0A1G8XA46 1-322, looked up)
chain: MVVIDLLIVEVVLFIAALLFSGFFSSSEVALISITRAKVHALQSQGRKGAKALDTLKRSTDAIQITTLIGSTIANVAVASLATAIGITLYGNLGIAVGLVVAAVLVLVFGEIGPKMYASRYTEELALRVSRPILFFSKLLYPVLWVTDRIEQQFAFRPGVTEPVVTEEEIKEWIDVGEEEGTIEEEERDMLYSVLRFGDTTAREVMTPRVDVVMIEDTATLESALAIFNETGFSLIPVYHERIDNIVGLLNVKDVFSAVFRQQTSATIRDLMYEPYFIPESKKIDELLKELQVKKQHMAVVLDEYGSFAGIVTVEDMLEELV
notes: CorB, Methanoculleus thermophilus, UniProt A0A1G8XA46, residues 1-322 (MtCorBΔC) with R235L; also called MtCorBΔC R235L mutant; apo conformation of MtCorBΔC; source: E. coli C41 (DE3), purified (Ni-NTA, SEC) in UDM
- binding result [5]: binds

B4: MtCorBΔC (residues 1–322) (domain or fragment, Methanoculleus thermophilus, UniProt A0A1G8XA46 1-322, looked up)
chain: B3 chain with L235R
notes: CorB, Methanoculleus thermophilus, UniProt A0A1G8XA46, residues 1-322 (CorC domain deleted); In nanodiscs of soybean polar extract and MSP1D1 (MtCorB:MSP1D1:lipid 2:10:550); filled nanodiscs were recovered on Ni-NTA; also called truncated MtCorB; MtCorB with a C-terminal CorC domain deletion; source: E. coli C41 (DE3), purified (Ni-NTA, SEC), reconstituted into MSP1D1 nanodiscs; not shown: His6, …
- binding result [3]: binds

From publication PMC8242095, “Crystal structure of an archaeal CorB magnesium transporter” (Nature Communications, 2021)
